Measured values as given in article PMC7413254 (Nature Communications, 2020).

Assays:
Assay type in all cases: cell-based
PfCRT^Dd2 [1] = target: T1, PfCRT^Dd2 (Plasmodium falciparum, UniProt Q9N623, A220S/I356T/K76T/M74I/N326S/N75E/Q271E/R371I); experiment: cell-based; conditions: for PfCRT-mediated [3H]CQ transport, trans-stimulation (% PfCRTDd2 control): PfCRTDd2 oocytes, normalised to oocyte type control; for [3H]CQ transport (% PfCRTDd2 control), trans-stimulation, PfCRTDd2: PfCRT-mediated component (background subtracted), mean ± SEM, SEM
Description: (§1) Unless specified otherwise, the transport assays were conducted over 1.5 h at 27.5 °C and the reaction buffer was ND96 (96 mM NaCl, 2 mM KCl, 1 mM MgCl2, 1.8 mM CaCl2, 10 mM MES and 10 mM Tris-base) at pH 5.5.
(§2) The intracellular concentrations were calculated using previous estimates of the volume of stage V–VI oocytes (~400 nL[60]). […] The oocytes were injected with VF-6 suspended in 25 nL ND96 buffer adjusted to pH 5.0, 5.5, 6.0 or 7.0, which corresponded to the injection of 2.5–250 fmol of H^+. The Na^+-dependence of the trans-stimulatory effect of VF-6 was assessed by injecting the oocytes with VF-6 suspended in ND96 buffer (pH 5.5) or a Na^+-free version of this buffer (the Na^+ was replaced with choline).
(§3) At least four independent experiments were performed (on different days and using oocytes from different frogs), and within each experiment measurements were made from ten oocytes per treatment.

PfCRT^3D7 = PfCRT^3D7 (Plasmodium falciparum, UniProt Q8IBZ9); experiment: cell-based; conditions: PfCRT3D7 oocytes, normalised to oocyte type control
Description: as §1, §2, §3

PfCRT^Ecu1110 [2] = target: T2, PfCRT^Ecu1110 (Plasmodium falciparum, UniProt Q9N623, A220S/I356L/K76T/N326D); experiment: cell-based; conditions: for PfCRT-mediated [3H]CQ transport, trans-stimulation (% PfCRTEcu1110 control): PfCRTEcu1110 oocytes, normalised to oocyte type control; for [3H]CQ transport (% PfCRTDd2 control), trans-stimulation, PfCRTEcu1110: PfCRT-mediated component (background subtracted), sheet title says normalised to PfCRTDd2 control, mean ± SEM, SEM
Description: as §1, §2, §3

PfCRT^Dd2 [3] = target: T1, PfCRT^Dd2; experiment: [3H]CQ uptake into Xenopus oocytes, cis-inhibition by unlabelled solute; conditions: PfCRTDd2 oocytes, background [3H]CQ accumulation subtracted, normalised to oocyte type control
From the text: (§4) The orientation of PfCRT in the parasite’s DV membrane, and also in the oocyte plasma membrane, is such that its N- and C-termini extend into the cytosol. The oocytes were suspended in a reaction buffer adjusted to pH 5.5 to mimic the pH of the DV lumen[1],[2]. In this scenario, the transport of a substrate via PfCRT from the acidic extracellular solution into the oocyte cytosol[15] is analogous to the parasite’s PfCRT-mediated efflux of a substrate from the acidic DV and into the cytosol. Unless specified otherwise, this is the direction in which substrate transport was measured in the oocyte assays.
as §1
(§5) Ten oocytes were washed twice with the relevant ND96 buffer. […] The assay was terminated by removing the reaction buffer and washing the oocytes with ice-cold ND96 buffer. The oocytes were lysed in 10% (w/v) sodium dodecyl sulfate (SDS) and the radioactivity accumulated within each oocyte was measured with a MicroBeta^2 microplate liquid scintillation analyser (PerkinElmer).
as §3

PfCRT^Ecu1110 [4] = target: T2, PfCRT^Ecu1110; experiment: as above; conditions: for PfCRT-mediated [3H]CQ transport, cis-inhibition (% PfCRTEcu1110 control): PfCRTEcu1110 oocytes, background [3H]CQ accumulation subtracted, normalised to oocyte type control; for [3H]CQ transport (% PfCRTEcu1110 control), cis-inhibition, PfCRTEcu1110: PfCRT-mediated component (background subtracted), sheet title says normalised to PfCRTDd2 control, mean ± SEM, SEM
From the text: as §4, §1, §5, §3

[5] = [test solute]i = 5 mM (intracellular)
[6] = [test solute]i = 45 mM (intracellular; 30 mM for some solutes due to solubility)
[7] = [test solute]i = 5 mM (injected)
[8] = [test solute]i = 45 mM (30 mM for some solutes due to solubility)

Chain of PfCRT^3D7 (Q8IBZ9 59-398): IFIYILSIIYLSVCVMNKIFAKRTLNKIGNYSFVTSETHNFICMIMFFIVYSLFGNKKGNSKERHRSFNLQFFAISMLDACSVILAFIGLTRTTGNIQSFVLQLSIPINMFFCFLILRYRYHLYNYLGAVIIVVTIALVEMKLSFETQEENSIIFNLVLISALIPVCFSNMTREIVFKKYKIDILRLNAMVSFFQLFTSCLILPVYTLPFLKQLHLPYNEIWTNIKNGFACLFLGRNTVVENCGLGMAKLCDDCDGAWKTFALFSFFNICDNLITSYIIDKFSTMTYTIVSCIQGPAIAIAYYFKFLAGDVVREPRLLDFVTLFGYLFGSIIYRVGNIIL
T1 sequence (Q9N623 whole entry A220S/I356T/K76T/M74I/N326S/N75E/Q271E/R371I): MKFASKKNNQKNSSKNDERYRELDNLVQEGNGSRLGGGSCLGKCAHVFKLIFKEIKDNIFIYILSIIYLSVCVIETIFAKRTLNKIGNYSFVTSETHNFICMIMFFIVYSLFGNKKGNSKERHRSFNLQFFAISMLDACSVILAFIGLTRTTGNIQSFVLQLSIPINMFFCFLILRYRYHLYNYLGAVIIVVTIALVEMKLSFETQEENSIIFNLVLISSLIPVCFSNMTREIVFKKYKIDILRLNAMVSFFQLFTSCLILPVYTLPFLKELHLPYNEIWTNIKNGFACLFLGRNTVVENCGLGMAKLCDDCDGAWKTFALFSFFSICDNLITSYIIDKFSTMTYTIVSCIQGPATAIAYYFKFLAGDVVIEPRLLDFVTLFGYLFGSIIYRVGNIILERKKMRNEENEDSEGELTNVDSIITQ
T2 sequence (Q9N623 whole entry A220S/I356L/K76T/N326D): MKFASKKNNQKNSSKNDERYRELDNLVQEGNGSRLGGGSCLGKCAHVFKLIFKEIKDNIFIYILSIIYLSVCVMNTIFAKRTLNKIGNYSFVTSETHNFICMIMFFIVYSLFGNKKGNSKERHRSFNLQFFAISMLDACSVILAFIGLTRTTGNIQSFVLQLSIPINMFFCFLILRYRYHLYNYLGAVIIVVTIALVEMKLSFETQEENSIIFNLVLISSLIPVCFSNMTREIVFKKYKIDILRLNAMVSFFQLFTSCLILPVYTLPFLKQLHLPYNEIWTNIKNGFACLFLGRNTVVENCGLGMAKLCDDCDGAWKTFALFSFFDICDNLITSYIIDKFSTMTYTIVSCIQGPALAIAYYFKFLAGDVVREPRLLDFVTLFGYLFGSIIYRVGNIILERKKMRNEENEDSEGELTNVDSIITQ

| Substance | PfCRT-mediated [3H]CQ transport, trans-stimulation (% PfCRTDd2 control) (PfCRT^Dd2 [1]; [5]) | PfCRT-mediated [3H]CQ transport, trans-stimulation (% PfCRTDd2 control) (PfCRT^Dd2 [1]; [6]) | [3H]CQ transport (% PfCRTDd2 control), trans-stimulation, PfCRTDd2 (PfCRT^Dd2 [1]; [7]) [% PfCRTDd2 control] | [3H]CQ transport (% PfCRTDd2 control), trans-stimulation, PfCRTDd2 (PfCRT^Dd2 [1]; [8]) [% PfCRTDd2 control] | PfCRT-mediated [3H]CQ transport, trans-stimulation (% PfCRT3D7 control) (PfCRT^3D7; [5]) | PfCRT-mediated [3H]CQ transport, trans-stimulation (% PfCRT3D7 control) (PfCRT^3D7; [6]) | PfCRT-mediated [3H]CQ transport, trans-stimulation (% PfCRTEcu1110 control) (PfCRT^Ecu1110 [2]; [5]) | PfCRT-mediated [3H]CQ transport, trans-stimulation (% PfCRTEcu1110 control) (PfCRT^Ecu1110 [2]; [6]) | [3H]CQ transport (% PfCRTDd2 control), trans-stimulation, PfCRTEcu1110 (PfCRT^Ecu1110 [2]; [7]) [% PfCRTEcu1110 control] | [3H]CQ transport (% PfCRTDd2 control), trans-stimulation, PfCRTEcu1110 (PfCRT^Ecu1110 [2]; [8]) [% PfCRTEcu1110 control] | PfCRT-mediated [3H]CQ transport, cis-inhibition (% PfCRTDd2 control) (PfCRT^Dd2 [3]; [test solute] = 0.5 mM) | PfCRT-mediated [3H]CQ transport, cis-inhibition (% PfCRTDd2 control) (PfCRT^Dd2 [3]; [test solute] = 1 mM) | PfCRT-mediated [3H]CQ transport, cis-inhibition (% PfCRTDd2 control) (PfCRT^Dd2 [3]; [test solute] = 2 mM) | PfCRT-mediated [3H]CQ transport, cis-inhibition (% PfCRTEcu1110 control) (PfCRT^Ecu1110 [4]; [test solute] = 0.5 mM) | PfCRT-mediated [3H]CQ transport, cis-inhibition (% PfCRTEcu1110 control) (PfCRT^Ecu1110 [4]; [test solute] = 1 mM) | PfCRT-mediated [3H]CQ transport, cis-inhibition (% PfCRTEcu1110 control) (PfCRT^Ecu1110 [4]; [test solute] = 2 mM) | [3H]CQ transport (% PfCRTEcu1110 control), cis-inhibition, PfCRTEcu1110 (PfCRT^Ecu1110 [4]; [test solute] = 0.5 mM) [% PfCRTEcu1110 control] | [3H]CQ transport (% PfCRTEcu1110 control), cis-inhibition, PfCRTEcu1110 (PfCRT^Ecu1110 [4]; [test solute] = 2 mM) [% PfCRTEcu1110 control] | [3H]CQ transport (% PfCRTEcu1110 control), cis-inhibition, PfCRTEcu1110 (PfCRT^Ecu1110 [4]; [test solute] = 1 mM) [% PfCRTEcu1110 control] |
| --- | --- | --- | --- | --- | --- | --- | --- | --- | --- | --- | --- | --- | --- | --- | --- | --- | --- | --- | --- |
| FSDGLA [FA-6] | 102 ± 6.2 | 98 ± 4.2 | 102 ± 6.2 | 98 ± 4.2 | 134 ± 3.2 | 190 ± 4.6 | 98 ± 4.5 | 96 ± 4.7 | 30 ± 1.4 | 29 ± 1.3 | 29 ± 0.1 | 17 ± 0.7 | 10 ± 0.3 | 60 ± 0.7 | 42 ± 2.5 | 32 ± 0.5 | 19 ± 0.1 | 10 ± 0.3 | – |
| LHVDPENF [LF-8] | 99 ± 3.1 | 98 ± 2.3 | – | – | 97 ± 2.2 | 98 ± 4.2 | 96 ± 2.1 | 95 ± 3.2 | – | – | 37 ± 2.0 | 21 ± 0.5 | 11 ± 0.2 | 31 ± 1.1 | 22 ± 2.0 | 11 ± 0.1 | – | – | – |
| DPENF [DEF-5] | 100 ± 2.1 | 112 ± 0.5 | 100 ± 2.1 | 112 ± 0.5 | 129 ± 3.2 | 162 ± 4.2 | 122 ± 1.9 | 137 ± 2.5 | 37 ± 1.5 | 41 ± 2.3 | 29 ± 2.1 | 20 ± 1.1 | 11 ± 0.1 | 41 ± 2.7 | 28 ± 1.0 | 18 ± 0.3 | 13 ± 0.1 | 6.0 ± 0.3 | – |
| YIGSR [YR-5] | 94 ± 4.6 | 96 ± 4.1 | 94 ± 4.6 | 96 ± 4.1 | 98 ± 2.6 | 94 ± 2.1 | 98 ± 4.2 | 96 ± 3.5 | 30 ± 1.7 | 29 ± 1.3 | 73 ± 3.9 | 58 ± 3.1 | 61 ± 2.9 | 71 ± 1.6 | 55 ± 1.4 | 49 ± 2.4 | 22 ± 0.1 | 15 ± 0.1 | 17 ± 0.4 |
